Test results reported in patent publication US20200377483A1, “NEW ANTI-MALARIAL AGENT” (MMV MEDICINES FOR MALARIA VENTURE, priority 2016, published 2020).
pIC50: −log10 of the molar value. In brackets after ≈: the same amount, converted by molar mass. Several values for one entry are separate records, joined by “and”; a condition that tells them apart may be missing. Identical values can stand only once. Like-named read-outs stand apart in the source and are kept apart here. Marks after values point to notes of the source that are not given here.

Legend:
[1] = Solubility in biorelevant media; assay type: physicochemical
Experimental: Compounds were each accurately weighed into individual screw cap polypropylene tubes and media added to give a nominal minimum target compound concentration of 2.2 mg/mL. Samples were vortex mixed and placed in a 37° C. incubator where they were continually mixed on an orbital shaker (IKA® VXR basic Vibrax® orbital shaker) at 600 rpm. Incubation times were 1 hour for fasted state simulated gastric fluid (FaSSGF) and 5 hours for fasted and fed state simulated intestinal fluids (FaSSIF-V2 and FeSSIF-V2 respectively). Sampling was carried out by centrifuging each sample at 10,000 rpm for 3 minutes, transferring 300 μL, aliquots into fresh Eppendorf tubes and centrifuging these tubes again at 10,000 rpm for 3 minutes. Triplicate aliquots of each final supernatant were diluted 20-fold in 50% aqueous methanol, and then further diluted in 50% aqueous acetonitrile to be within an appropriate concentration range for analysis by LC-MS. LC-MS methods and validation data for the analysis of solubility samples are shown in Table 2 below and the media composition is shown in Table 3.

[2] = test system: chloroquine-resistant (K1) strain of P. falciparum; experiment: In vitro antimalarial activity, K1 strain; assay type: cell-based
Experimental: (§1) The ability of dispiro 1,2,4-trioxolane derivatives according to the invention to show antimalarial efficacy in vitro and in vivo was tested as described in Charman, et al, 2011, PNAS, 108, 4400-4405 against chloroquine-resistant (K1) and chloroquine-sensitive (NF54) strains of P. falciparum in vitro (Vennerstrom et al. 2004, Nature, 430, 900-904).
(§2) The in vivo activity is shown in P. berghei (Pb) infected mice in terms of the percentage of inhibition of parasitemia following compound administration and the number of survival days.

[3] = test system: chloroquine-sensitive (NF54) strain of P. falciparum; experiment: In vitro antimalarial activity, NF54 strain; assay type: cell-based
Experimental: as §1, §2

P. berghei = experiment: In vivo activity in P. berghei (Pb) infected mice
Experimental: as §1, §2

[4] = test system: artemisinin-resistant P. falciparum isolate from Cambodia; experiment: Ring-stage survival assay (RSA0-3h); assay type: cell-based; settings: for RSA values ± SEM (survival): 6 h exposure, 66 h post-treatment
Experimental: Agents Chemother. 57:914-923), but with a few modifications in the drug washing procedure to ensure that no residual peroxide was present during the 66 h post-treatment period. Briefly, 0-3 h post-invasion ring stages were adjusted to 1% parasitemia and 2.5% haematocrit by adding uninfected erythrocytes, transferred in a total volume of 1 mL into 48-well plates and exposed for 6 h to a range of concentrations ([…]) of DHA or one of the compounds tested in this study. After 6 h, cultures were transferred to 15 mL conical tubes, centrifuged at 1400 rpm (400 g) for 2 min and carefully washed 2 times with 12 mL of culture medium. […] After washing, blood pellets were resuspended in complete compound-free culture medium, transferred into new wells and cultured for 66 h in standard conditions. Table 8 below presents the Ring-stage survival assay (RSA) values as tested in Wells et al., 2015, supra for compounds of the invention and comparative compounds.

[5] = Solubility in biorelevant media; assay type: physicochemical; settings: PBS, pH 7.4
CLint, H = assay type: in vitro ADME, human; settings: H (first of H, D, R, M)
CLint, D = assay type: in vitro ADME, dog; settings: D (second of H, D, R, M)
CLint, R = assay type: in vitro ADME, rat; settings: R (third of H, D, R, M)
CLint, M = assay type: in vitro ADME, mouse; settings: M (fourth of H, D, R, M)
[6] = test system: 7 CYP isoforms (1A2, 2B6, 2C8, 2C9, 2C19, 2D6, 3A4/5); experiment: Cyp inhibition IC50, 7 isoforms, human liver microsomes; assay type: in vitro ADME
Experimental: The assessment of time-dependent inhibition was based on measurement of the “IC50 shift”, whereby the IC50 was measured following pre-incubation of test compound (or reference inhibitor) in the absence or presence of NADPH. A 10-fold dilution step was incorporated following the pre-incubation to minimize reversible product inhibition (by potential metabolites of test compound) such that evidence of time-dependent inhibition is more likely to reflect mechanism-based inhibition. The maximum concentration of test compound in the pre-incubation mixture (containing either 1 or 2 mg/mL microsomal protein and 1.0% v/v DMSO) was 200 μM, and the potential for precipitation of test compound was closely monitored at the time of spiking. […] On this basis, it is assumed that test compounds were fully dissolved at all concentrations in the pre-incubation mixtures. Reference inhibitors (both mechanism-based and reversible inhibitors) were included to validate the assay. […]

[7] = test system: CYP isoforms (1A2, 2B6, 2C8, 2C9, 2C19, 2D6, 3A4/5); experiment: Time-dependent CYP inhibition (IC50 shift), CYP isoforms; assay type: in vitro ADME; settings: human liver microsomes, 30 min pre-incubation with or without NADPH
Experimental: Time-dependent CYP inhibition can occur as a result of irreversible interactions of a test compound with a CYP450 enzyme (i.e. mechanism-based inhibition; MBI) or, alternatively, by reversible product inhibition (i.e. whereby the metabolite of the test compound is responsible for inhibition of the CYP). The potential for time-dependent CYP inhibition was assessed using CYP-specific metabolic pathways in human liver microsomes by measuring the formation of metabolites known to be formed by individual CYP isoforms (Table 5) according to the following protocol (probe substrates, metabolites and incubation times):
The assessment of time-dependent inhibition was based on measurement of the “IC50 shift”, whereby the IC50 was measured following pre-incubation of test compound (or reference inhibitor) in the absence or presence of NADPH. A 10-fold dilution step was incorporated following the pre-incubation to minimize reversible product inhibition (by potential metabolites of test compound) such that evidence of time-dependent inhibition is more likely to reflect mechanism-based inhibition. The maximum concentration of test compound in the pre-incubation mixture (containing either 1 or 2 mg/mL microsomal protein and 1.0% v/v DMSO) was 200 μM, and the potential for precipitation of test compound was closely monitored at the time of spiking. […]

| SMILES | Conc. (solubility) ([1]; FaSSGF, 37° C., 1 hour) | Conc. (solubility) ([1]; FaSSIF-V2, 37° C., 5 hours) | Conc. (solubility) ([1]; FeSSIF-V2, 37° C., 5 hours) | IC50 K1 [2] | IC50 NF54 [3] | % activity (percentage of inhibition of parasitemia) (P. berghei; Pb 1 × 10 mg/kg) | Survival days (P. berghei; Pb 1 × 10 mg/kg) | % activity (percentage of inhibition of parasitemia) (P. berghei; Pb 1 × 30 mg/kg) | Survival days (P. berghei; Pb 1 × 30 mg/kg) | RSA values ± SEM (survival) ([4]; 49 nM) | RSA values ± SEM (survival) ([4]; 88 nM) | RSA values ± SEM (survival) ([4]; 175 nM) | RSA values ± SEM (survival) ([4]; 350 nM) | RSA values ± SEM (survival) ([4]; 700 nM) | Conc. (solubility) [5] | further results |
| --- | --- | --- | --- | --- | --- | --- | --- | --- | --- | --- | --- | --- | --- | --- | --- | --- |
| CC1(C)CC(O)(COc2ccc([C@H]3CC[C@]4(CC3)OOC3(O4)C4CC5CC(C4)CC3C5)cc2)CC(C)(C)N1 (stereo partly drawn) [Compound (1), cis-Adamantane-2-spiro-3′-8′-[4′-[(4′-hydroxy-2′,2′,6′,6′-tetramethyl-4′-piperidinyl)methoxy]phenyl]-1′,2′,4′-trioxaspiro[4.5]decane] | 10.1 µg/mL | 1516 µg/mL | >2000 µg/mL | 1.2 ng/mL (≈ 0.00228 µM) | 0.9 ng/mL (≈ 0.00171 µM) | 99.1% | 13.6 days | 99.6% | >30 days | 1.29 ± 1.24% | 0.16 ± 0.23% | 0.11 ± 0.08% | 0% | 0% | 10.6 µg/mL | – |
| C[C@H]1[C@@H](O)O[C@@H]2O[C@@]3(C)CC[C@H]4[C@H](C)CC[C@@H]1[C@@]24OO3 [DHA, Dihydroartemisinin, reference compound] | – | – | – | – | – | – | – | – | – | 74% and 73.5 ± 12.3% | 60.03 ± 4.99% | 47.94 ± 3.88% | 37.67 ± 3.65% | 33% and 33.02 ± 4.39% | – | – |
| c1cc([C@H]2CC[C@]3(CC2)OO[C@]2(O3)C3CC4CC(C3)CC2C4)ccc1OCCN1CCOCC1 [Compound C1, reference compound] | 79.0 µg/mL | 40.6 µg/mL | 563 µg/mL | – | – | 99.5% | 15.2 days | 98.1% | >30 days | – | 0.93 ± 0.93% | 0.73 ± 1.03% | 0.73 ± 1.03% | 0.73 ± 1.03% | – | solubility at 1 h ([1]; fasted state simulated gastric fluid (FaSSGF), 37 °C, fassgf or other biorelevant, thermodynamic from solid, FaSSGF, 37° C., 1 hour, read-out: Conc. (solubility)): 51.9 µg/mL (≈ 111 µM); solubility at 5 h ([1]; fasted state simulated intestinal fluid (FaSSIF-V2), 37 °C, fassif, thermodynamic from solid, FaSSIF-V2, 37° C., 5 hours, read-out: Conc. (solubility)): 22.3 µg/mL (≈ 47.5 µM); solubility at 5 h ([1]; fed state simulated intestinal fluid (FeSSIF-V2), 37 °C, fessif, thermodynamic from solid, FeSSIF-V2, 37° C., 5 hours, read-out: Conc. (solubility)): 557 µg/mL (≈ 1190 µM); IC50 ([3]; Plasmodium falciparum): 2 ng/mL (≈ 0.00426 µM) |
| c1cc(C2CCC3(CC2)OOC2(O3)C3CC4CC(C3)CC2C4)ccc1OCCC1CCNCC1 (stereo not drawn) [Compound (2), cis-Adamantane-2-spiro-3′-8′-[4′-[2′-(4′-piperidinyl)ethoxy]phenyl]-1′,2′,4′-trioxaspiro [4.5]decane] | 5.6 µg/mL | 293 µg/mL | 1632 µg/mL | 1.4 ng/mL (≈ 0.00299 µM) | 1.4 ng/mL (≈ 0.00299 µM) | 99.4% | 13.4 days | 99.5% | >30 days | 0.76 ± 0.60% | 0% | 0% | 0% | 0% | <1^c μg/mL | CLint H (CLint, H): < 7 µL/min/mg; CLint D (CLint, D): 9 µL/min/mg; CLint R (CLint, R): < 7 µL/min/mg; CLint M (CLint, M): 16 µL/min/mg; pIC50 [6]: < 4.70; Time Dependent Inhibition [7]: none; growth of the artemisinin-resistant isolate ([4]; 700, 350, 175 and 88 nM): completely inhibiting the growth |
